From patent US20080107761A1, “Composition and Method For Promoting the Production of and/or Enhancing the Activity of Fibulin-5” (Shiseido Company, Ltd., priority 2004, published 2008)

System: fibulin-5 mRNA
Experiment: Expression and determination of fibulin-5 mRNA in human fibroblasts by quantitative PCR
Type: cell-based
Details: for Effect on fibulin-5 production in human fibroblasts (% of the control) Mean ± SD: 24 hours culture, relative to no-addition control; for Effect of promoting fibulin-5 production (in words): summary of Table 1
Experimental: Adhering cells were suspended by a trypsin-ethylenediaminetetraacetic acid (EDTA) treatment and then filtered to obtain a homogeneous cell suspension. Cells were collected by centrifugation and suspended at 0.2x10^6 cells/ml. Three ml each of the cell suspension was inoculated to a 6-well plate. After the cells adhered, the medium was replaced with a 0.25% by weight FBS-containing DMEM. After culturing at 37° C for 24 hours, the medium was replaced with 0.25% by weight FBS-containing DMEM containing either of a few dozen of pharmaceutical agents. After culturing for further 24 hours, the culture supernatant was removed, and mRNA was recovered by the ABI PRISM 6100 Nucleic Acid PrepStation Kit (Applied Biosystems). […] The primers and probes used in this Example are as follows: The determination of mRNA expression was conducted in three groups, and was expressed in percentage relative to the mean of the no-addition control group.

O=C(O)[C@@H]1C[C@@H](O)CN1 [L-hydroxyproline, (2S,4R)-4-hydroxypyrrolidine-2-carboxylic acid]
Effect on fibulin-5 production in human fibroblasts (% of the control) Mean ± SD (25 μg/ml (0.0025% by weight)): 110.1 ± 11.0 % of the control | Effect on fibulin-5 production in human fibroblasts (% of the control) Mean ± SD (250 μg/ml (0.025% by weight)): 147.3 ± 8.9 % of the control | Effect of promoting fibulin-5 production (in words): significant effect of promoting fibulin-5 production

O=P(O)(O)O[C@H]1[C@H](OP(=O)(O)O)[C@@H](OP(=O)(O)O)[C@H](OP(=O)(O)O)[C@@H](OP(=O)(O)O)[C@H]1OP(=O)(O)O [phytic acid, myo-inositol hexakis- phosphate]
Effect on fibulin-5 production in human fibroblasts (% of the control) Mean ± SD (25 μg/ml (0.0025% by weight)): 93.0 ± 24.4 % of the control | Effect on fibulin-5 production in human fibroblasts (% of the control) Mean ± SD (250 μg/ml (0.025% by weight)): 126.1 ± 16.4 % of the control | Effect of promoting fibulin-5 production (in words): significant effect of promoting fibulin-5 production
